Here are results for 26 molecules from PubChem BioAssay AID330 (DTP/NCI, 2004).

Several values for one entry are separate records, joined by “and”; a condition that tells them apart may be missing. Equal values may be shown once. Toxic doses and inconclusive results are not listed. Peptide text beside a SMILES is read from it. * marks the point of attachment. Boc = CC(C)(C)OC(=O)*

This test deals with P388 leukemia ip, CD2F1 mice, survival T/C. Nature of the test: NCI In Vivo Anticancer Drug Screen. Data for tumor model P388 Leukemia (intraperitoneal) in CD2F1 (CDF1) mice. The conditions noted are these: endpoint: median survival time, higher = longer survival. In short, it runs like this:
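Mice carrying the transplanted tumor received test compound or vehicle. Survival was recorded in each group, and the value is the treated-group measurement divided by that of the vehicle-treated control group.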

Setting [1] is: dose: 50.0 mg/kg/injection, schedule: Q01DX009 (ip), vehicle: saline with Tween-80.
The mark [2] stands for this setting: dose: 100.0 mg/kg/injection, schedule: Q01DX009 (ip), vehicle: saline with Tween-80.
Where [3] appears, read: dose: 200.0 mg/kg/injection, schedule: Q01DX009 (ip), vehicle: saline with Tween-80.
Where [4] appears, read: dose: 60.0 mg/kg/injection, schedule: Q01DX005 (ip), vehicle: saline with Tween-80.
The mark [5] stands for this setting: dose: 120.0 mg/kg/injection, schedule: Q01DX005 (ip), vehicle: saline with Tween-80.
Where [6] appears, read: dose: 60.0 mg/kg/injection, schedule: Q01DX005 (ip), vehicle: Klucel (hydroxypropylcellulose) (HPC).
The mark [7] stands for this setting: dose: 120.0 mg/kg/injection, schedule: Q01DX005 (ip), vehicle: Klucel (hydroxypropylcellulose) (HPC).
Setting [8] is: dose: 240.0 mg/kg/injection, schedule: Q01DX005 (ip), vehicle: Klucel (hydroxypropylcellulose) (HPC).
Where [9] appears, read: dose: 50.0 mg/kg/injection, schedule: Q01DX005 (ip), vehicle: Klucel (hydroxypropylcellulose) (HPC).
Where [10] appears, read: dose: 100.0 mg/kg/injection, schedule: Q01DX005 (ip), vehicle: Klucel (hydroxypropylcellulose) (HPC).
Setting [11] is: dose: 200.0 mg/kg/injection, schedule: Q01DX005 (ip), vehicle: Klucel (hydroxypropylcellulose) (HPC).
[12] abbreviates: dose: 50.0 mg/kg/injection, schedule: Q01DX005 (ip), vehicle: saline with Tween-80.
Setting [13] is: dose: 100.0 mg/kg/injection, schedule: Q01DX005 (ip), vehicle: saline with Tween-80.
The mark [14] stands for this setting: dose: 200.0 mg/kg/injection, schedule: Q01DX005 (ip), vehicle: saline with Tween-80.
The mark [15] stands for this setting: dose: 6.25 mg/kg/injection, schedule: Q01DX005 (ip), vehicle: Klucel (hydroxypropylcellulose) (HPC).
Where [16] appears, read: dose: 50.0 mg/kg/injection, schedule: Q01DX009 (ip), vehicle: saline.
The mark [17] stands for this setting: dose: 50.0 mg/kg/injection, schedule: Q01DX009 (ip), vehicle: Klucel (hydroxypropylcellulose) (HPC).
[18] abbreviates: dose: 100.0 mg/kg/injection, schedule: Q01DX009 (ip), vehicle: Klucel (hydroxypropylcellulose) (HPC).
The mark [19] stands for this setting: dose: 200.0 mg/kg/injection, schedule: Q01DX009 (ip), vehicle: Klucel (hydroxypropylcellulose) (HPC).

As for `O=S(=O)(Oc1cccc2ccccc12)C(F)(F)C(F)(F)C(F)(F)C(F)(F)F`, the T/C under setting [1] was 108 % of control, the T/C under setting [2] was 108 % of control and the T/C under setting [3] was 105 % of control.

`CCCCCCCCN1CCOCCOCCN(CCCCCCCC)c2nc(Cl)nc(n2)NCCOCCOCCNc2nc(Cl)nc1n2`: the T/C reads like this: under setting [4], 98 % of control; under setting [5], 93 % of control.

In the case of `Cc1ccc(S(=O)(=O)C23N=NC(C)(C)C2N=NC3(C)C)cc1` (configuration not stated), the T/C by setting is: under setting [6], 101 % of control; under setting [7], 100 % of control; under setting [8], 98 % of control.

As to `CSCCC(NC(=O)OC(C)(C)C)C(=O)NC(Cc1ccccc1)C(=O)O` (stereo not drawn) (Boc-Met-Phe-OH; configuration not given here), the T/C is, setting by setting: under setting [9], 100 % of control; under setting [10], 100 % of control; under setting [11], 106 % of control.

`COc1cc2c(cc1OC)C(C)P(C)(=O)CC2=O` (configuration not stated): the T/C by setting is: under setting [12], 96 % of control and 99 % of control; under setting [13], 102 % of control and 101 % of control; under setting [14], 102 % of control and 99 % of control.

In the case of `O=S1(=O)CS(=O)(=O)OCCCCCO1`, the T/C reads like this: under setting [15], 161 % of control; (dose: 12.5 mg/kg/injection, schedule: Q01DX005 (ip), vehicle: Klucel (hydroxypropylcellulose) (HPC)) 211 % of control and 213 % of control; (dose: 25.0 mg/kg/injection, schedule: Q01DX005 (ip), vehicle: Klucel (hydroxypropylcellulose) (HPC)) 255 % of control and 288 % of control; under setting [9], 165 % of control and 288 % of control.

For `COC1/C=C/OC2(C)Oc3c(C)c(O)c4c(O)c(c(/C=N/N5C(C)CN(Cc6cccc(O)c6)CC5C)c(O)c4c3C2=O)NC(=O)/C(C)=C\C=C\C(C)C(O)C(C)C(O)C(C)C(OC(C)=O)C1C` (configuration not stated), the T/C is 102 % of control under setting [1], 100 % of control under setting [2] and 118 % of control under setting [3].

On to `NC1(c2ccccc2)CCCCC1`, for which the T/C reads like this: (dose: 12.5 mg/kg/injection, schedule: Q01DX009 (ip), vehicle: saline) 99 % of control; (dose: 25.0 mg/kg/injection, schedule: Q01DX009 (ip), vehicle: saline) 106 % of control; under setting [16], 105 % of control.

`CC(C#N)C(N)=O` (configuration not stated): the T/C by setting is: (dose: 12.5 mg/kg/injection, schedule: Q04DX003 (ip), vehicle: saline) 100 % of control; (dose: 25.0 mg/kg/injection, schedule: Q04DX003 (ip), vehicle: saline) 105 % of control; (dose: 50.0 mg/kg/injection, schedule: Q04DX003 (ip), vehicle: saline) 110 % of control.

As to `ClCCN(CCCCCCN(CCCl)c1ccccc1)c1ccccc1`, the T/C was 109 % of control under setting [17], 109 % of control under setting [18] and 108 % of control under setting [19].

On to `CSc1nc2c(=S)[nH]cnc2s1`, for which the T/C was 95 % of control (dose: 100.0 mg/kg/injection, schedule: Q04DX002 (ip), vehicle: saline with Tween-80); 92 % of control (dose: 200.0 mg/kg/injection, schedule: Q04DX002 (ip), vehicle: saline with Tween-80); 92 % of control (dose: 400.0 mg/kg/injection, schedule: Q04DX002 (ip), vehicle: saline with Tween-80).

Turning to `COc1ccc(/C=N/N2CN(C(C)C(=O)O)C(O)(CCl)N=C2N)cc1OC` (configuration not stated), the T/C is 108 % of control (dose: 60.0 mg/kg/injection, schedule: Q01DX005 (ip), vehicle: saline) and 114 % of control (dose: 120.0 mg/kg/injection, schedule: Q01DX005 (ip), vehicle: saline).

Turning to `CCOc1nnc(-c2ccc(OC)c(OC)c2)o1`, the T/C (dose: 12.5 mg/kg/injection, schedule: Q01DX009 (ip), vehicle: other) is 90 % of control; the T/C (dose: 100.0 mg/kg/injection, schedule: Q01DX009 (ip), vehicle: other) was 106 % of control; the T/C (dose: 200.0 mg/kg/injection, schedule: Q01DX009 (ip), vehicle: other) was 90 % of control.

Take `CN=C1OC2(c3ccccc3)C3=C(OC(=NC)N2C)C(=O)OC3(c2ccccc2)N1C` (configuration not stated): the T/C is 98 % of control under setting [6], 95 % of control under setting [7] and 91 % of control under setting [8].

In the case of `CCCCCCOCC(=O)OC`, the T/C by setting is: under setting [1], 103 % of control; under setting [2], 102 % of control; under setting [3], 102 % of control.

`O=C1C=CC(=NS(=O)(=O)c2ccccc2)C=C1`: the T/C was 100 % of control (dose: 12.5 mg/kg/injection, schedule: Q01DX001 (ip), vehicle: other); 100 % of control (dose: 25.0 mg/kg/injection, schedule: Q01DX001 (ip), vehicle: other); 100 % of control (dose: 50.0 mg/kg/injection, schedule: Q01DX001 (ip), vehicle: other).

Regarding `C=C1C2CCC3C45C=NCC(C)(CCC4)C5CCC3(C2)C1OC(C)=O` (configuration not stated), the T/C by setting is: (dose: 2.0 mg/kg/injection, schedule: Q01DX009 (ip), vehicle: Klucel (hydroxypropylcellulose) (HPC)) 104 % of control; (dose: 4.0 mg/kg/injection, schedule: Q01DX009 (ip), vehicle: Klucel (hydroxypropylcellulose) (HPC)) 94 % of control; (dose: 8.0 mg/kg/injection, schedule: Q01DX009 (ip), vehicle: Klucel (hydroxypropylcellulose) (HPC)) 104 % of control; (dose: 16.0 mg/kg/injection, schedule: Q01DX009 (ip), vehicle: Klucel (hydroxypropylcellulose) (HPC)) 93 % of control.

For the molecule `CCCCCCN(CCCCCC)C(C)C(=O)c1ccc2cc(Br)c3ccccc3c2c1` (configuration not stated), the T/C was 91 % of control under setting [12], 94 % of control under setting [13] and 94 % of control under setting [14].

Turning to `O=C1C=Cc2ccccc2C1=C1SCCS1`, the T/C under setting [17] is 103 % of control, the T/C under setting [18] is 93 % of control and the T/C under setting [19] is 90 % of control.

In the case of `COc1ccc(OC)c(NC(=O)CCCC(=O)C(C#N)c2nc3ccccc3s2)c1` (configuration not stated), the T/C runs as follows: under setting [4], 105 % of control; under setting [5], 108 % of control; (dose: 240.0 mg/kg/injection, schedule: Q01DX005 (ip), vehicle: saline with Tween-80) 100 % of control.

With `COc1cc(C2c3cc4c(cc3CC3COC(=O)C32)OCO4)cc(OC)c1O` (configuration not stated), the T/C reads like this: (dose: 0.5 mg/kg/injection, schedule: Q01DX009 (ip), vehicle: saline with Tween-80) 105 % of control; (dose: 1.0 mg/kg/injection, schedule: Q01DX009 (ip), vehicle: saline with Tween-80) 103 % of control; (dose: 2.0 mg/kg/injection, schedule: Q01DX009 (ip), vehicle: saline with Tween-80) 114 % of control; (dose: 3.1 mg/kg/injection, schedule: Q01DX009 (ip), vehicle: saline with Tween-80) 123 % of control; (dose: 4.0 mg/kg/injection, schedule: Q01DX009 (ip), vehicle: saline with Tween-80) 107 % of control.

As to `Cc1cc(C)nc(NCCCCCCCCNc2nc(C)cc(C)n2)n1`, the T/C under setting [9] was 91 % of control, the T/C under setting [10] was 96 % of control and the T/C under setting [11] was 90 % of control.

Consider `O=c1oc(-c2ccccc2)nc2c1sc1nc(-c3ccccc3)oc(=O)c12`, for which the T/C is 93 % of control (dose: 1.56 mg/kg/injection, schedule: Q01DX005 (ip), vehicle: Klucel (hydroxypropylcellulose) (HPC)); 101 % of control and 91 % of control and 96 % of control (dose: 3.12 mg/kg/injection, schedule: Q01DX005 (ip), vehicle: Klucel (hydroxypropylcellulose) (HPC)); 87 % of control and 88 % of control and 89 % of control under setting [15]; 88 % of control and 92 % of control under setting [9].

Turning to `O=C(Oc1c(Cc2ccccc2)c(=O)[nH]c2ccccc12)c1ccccc1`, the T/C is, setting by setting: under setting [6], 90 % of control; under setting [7], 89 % of control.

For `NC(N)=NNC(O)(C(=O)O)C(=O)O`, the T/C is 100 % of control under setting [9], 96 % of control under setting [10] and 96 % of control under setting [11].

As to `NNC(=O)C(NC=O)C(N)=O` (configuration not stated), the T/C (dose: 12.5 mg/kg/injection, schedule: Q01DX009 (ip), vehicle: saline with Tween-80) is 107 % of control; the T/C (dose: 25.0 mg/kg/injection, schedule: Q01DX009 (ip), vehicle: saline with Tween-80) was 100 % of control; the T/C under setting [1] was 98 % of control; the T/C under setting [16] is 88 % of control; the T/C (dose: 200.0 mg/kg/injection, schedule: Q01DX009 (ip), vehicle: saline) was 92 % of control.
